Measured values: patent US20140288044A1, “COMPOSITIONS AND THERAPEUTIC USES OF IKK-RELATED KINASE EPSILON AND TANKBINDING KINASE 1 INHIBITORS” (Alzheimer's Institute of America, Inc., priority 2011, published 2014)
Where two headings read alike, the source gives them in different places.

Columns and labels:
[1] = system: RANTES secretion by prostate cancer DU145 cells; experiment: ELISA to detect secreted RANTES, prostate cancer DU145 cells; type: cell-based; settings: Homo sapiens, DU-145
Experimental: Prostate cancer DU145 cells were seeded at 20,000 cells/well in a 96-well tissue culture plate. The following day media was removed and replaced with complete media containing IKKε/TBK1 inhibitor (starting concentration 25 μM, 1:3 dilutions, final DMSO 0.05%). Cells were incubated for 20 hours and culture supernatant used to determine secreted RANTES levels using a commercially available ELISA kit (R & D Systems, Minneapolis, Minn.).

[2] = target: T1, IKKε (Homo sapiens, UniProt Q14164); experiment: In-vitro IKKε kinase assay (radiolabelled ATP, filterplate); type: biochemical
T1 construct: His-tag (in-house Sf9 preparation) or GST-tag (purchased Invitrogen preparation); these are alternatives, not both on one protein; host or cells: Sf9 cells
T1 sequence (Q14164 1-716): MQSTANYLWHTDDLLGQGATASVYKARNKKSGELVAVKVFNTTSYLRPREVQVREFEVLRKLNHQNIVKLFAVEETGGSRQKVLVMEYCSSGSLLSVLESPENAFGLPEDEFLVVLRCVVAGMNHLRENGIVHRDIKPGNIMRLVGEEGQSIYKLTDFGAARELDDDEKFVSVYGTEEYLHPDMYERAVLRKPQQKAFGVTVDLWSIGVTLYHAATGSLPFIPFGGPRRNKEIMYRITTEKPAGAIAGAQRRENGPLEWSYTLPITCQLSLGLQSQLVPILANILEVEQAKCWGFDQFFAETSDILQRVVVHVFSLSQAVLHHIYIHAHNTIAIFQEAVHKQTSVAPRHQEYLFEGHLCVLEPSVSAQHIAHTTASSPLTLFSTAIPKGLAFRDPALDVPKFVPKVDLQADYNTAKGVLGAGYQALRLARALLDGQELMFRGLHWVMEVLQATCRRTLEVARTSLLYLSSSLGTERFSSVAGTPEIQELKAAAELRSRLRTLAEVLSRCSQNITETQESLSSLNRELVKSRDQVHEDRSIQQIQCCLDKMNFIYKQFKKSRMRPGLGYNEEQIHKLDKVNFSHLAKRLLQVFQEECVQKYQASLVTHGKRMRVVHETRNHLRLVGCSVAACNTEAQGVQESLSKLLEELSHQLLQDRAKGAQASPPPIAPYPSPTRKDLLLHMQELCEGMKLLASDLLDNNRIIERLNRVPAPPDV
How it was run: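 His-tagged IKKε from Sf9 cells or GST-tagged IKKε, with myelin basic protein, casein or dephosphorylated casein as substrate and 32 μM ATP (2× Km) plus [γ^33]ATP. "Normal" assay used 0.1 μg/ml enzyme; "sensitized" used 0.015 μg/ml with dephosphorylated casein only. Stopped after 30–45 min with phosphoric acid; P-81 filter counts normalized to DMSO after background subtraction.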

[3] = system: IKKε-mediated phosphorylation of IRF3; experiment: ELISA for in-situ phosphorylation of IRF3 (phospho-Ser396) in HEK293T cells cotransfected with IRF3 and IKKε; type: cell-based; settings: Homo sapiens, HEK-293T
How it was run: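 HEK293T cells cotransfected with IRF3 and IKKε were treated with compound for 20 h, and lysates were assayed by ELISA for phospho-Ser396 IRF3, normalized to DMSO. Viability was checked in parallel by CellTiter-Glo. For TBK1, cells cotransfected with IRF7 and TBK1 were treated overnight and probed by Western blot for phospho-Ser477/Ser479 IRF7.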

[4] = DU145 cells, 20 hours, read-out: IC50, inhibition of the secretion of RANTES
[5] = "sensitized" assay, read-out: IC50, inhibition of the kinase activity of IKKε
[6] = in-vitro IKKε kinase inhibition assays, given as 0.005 μM (5 nM), read-out: IKKε kinase inhibitory activity (IC50 value)
[7] = 20 h, HEK293T cells, 20 hours, read-out: IC50, in-situ IKKε-mediated phosphorylation of IRF3
[8] = Table 3, DU145 cells in culture, read-out: RANTES Secretion IC50
[9] = 20 h, HEK293T cells, 20 hours, range given from about 1 μM to about 250 nM, read-out: IC50, in-situ IKKε-mediated phosphorylation of IRF3
[10] = Table 3, HEK293T cells in culture, read-out: pIRF3 ELISA IC50
[11] = Table 3, in vitro, read-out: IKKε IC50

SMILES	IC50 [1, 4]	IC50 [2, 6]	IC50 [3, 7]	IC50 [1, 8]	IC50 [3, 9]	IC50 [3, 10]	IC50 [2, 11]	IC50 [2, 5]
N#Cc1cc(-c2ccnc(Nc3cnc(N4CCOCC4)nc3)n2)ccc1OC1CCOCC1 [Example Compound 2, 5-(2-{[2-(Morpholin-4-yl)pyrimidin-5-yl]amino}pyrimidin-4-yl)-2-(tetrahydro-2H-pyran-4-yloxy)benzonitrile]	60 to 125 nM							
N#Cc1cc(-c2ccnc(Nc3cccnc3)n2)ccc1OC1CCOCC1 [Example Compound 11, 5-[2-(Pyridin-3-ylamino)pyrimidin-4-yl]-2-(tetrahydro-2H-pyran-4-yloxy)benzonitrile]	60 to 125 nM	< 5 nM						< 5 nM
COCCOC1CN(C(=O)c2ccc(Nc3nccc(-c4ccc(OC5CCOCC5)c(C#N)c4)n3)cn2)C1 [Example Compound 28, 5-{2-[(6-{[3-(2-Methoxyethoxy)azetidin-1-yl]carbonyl}pyridin-3-yl)amino]pyrimidin-4-yl}-2-(tetrahydro-2H-pyran-4-yloxy)benzonitrile]	60 to 125 nM		1000 to 5000 nM					
N#Cc1cc(-c2ccnc(Nc3ccc(CN4CCC4)nc3)n2)ccc1OC1CCOCC1 [Example Compound 47, 5-(2-{[6-(Azetidin-1-ylmethyl)pyridin-3-yl]amino}pyrimidin-4-yl)-2-(tetrahydro-2H-pyran-4-yloxy)benzonitrile]	20 to 60 nM			39.5 nM	250 to 1000 nM	265 nM	6.37 nM	
COC1CN(Cc2ccc(Nc3nccc(-c4ccc(OC5CCOCC5)c(C#N)c4)n3)cn2)C1 [Example Compound 48, 5-[2-({6-[(3-Methoxyazetidin-1-yl)methyl]pyridin-3-yl}amino)pyrimidin-4-yl]-2-(tetrahydro-2H-pyran-4-yloxy)benzonitrile]	20 to 60 nM	< 5 nM		52.2 nM	250 to 1000 nM	315 nM	2.74 nM	< 5 nM
COCCOC1CN(Cc2ccc(Nc3nccc(-c4ccc(OC5CCOCC5)c(C#N)c4)n3)cn2)C1 [Example Compound 49, 5-{2-[(6-{[3-(2-Methoxyethoxy)azetidin-1-yl]methyl}pyridin-3-yl)amino]pyrimidin-4-yl}-2-(tetrahydro-2H-pyran-4-yloxy)benzonitrile]	20 to 60 nM			55.8 nM	250 to 1000 nM	363 nM	6.11 nM	
CN(CCO)c1ccc(Nc2nccc(-c3ccc(OCC4CC4)c(C#N)c3)n2)cn1 [Example Compound 111, 2-(Cyclopropylmethoxy)-5-[2-({6-[(2-hydroxyethyl)(methyl)amino]pyridin-3-yl}amino)pyrimidin-4-yl]benzonitrile]	20 to 60 nM	< 5 nM						< 5 nM

More lines, main results first:

IC50 [1, 4]	IC50 [2, 6]	IC50 [3, 7]	IC50 [1, 8]	IC50 [3, 9]	IC50 [3, 10]	IC50 [2, 11]	SMILES	IC50 [2, 5]
20 to 60 nM	< 5 nM	< 100 nM	21 nM		32.6 nM	1.91 nM	N#Cc1cc(-c2ccnc(Nc3ccc(N4CCOCC4)nc3)n2)ccc1NC(=O)C1CC1 [Example Compound 141, N-[2-Cyano-4-(2-{[6-(morpholin-4-yl)pyridin-3-yl]amino}pyrimidin-4-yl)phenyl]cyclopropanecarboxamide]	< 5 nM
60 to 125 nM							COC1CN(Cc2ccc(Nc3nccc(-c4ccc(NC(=O)C5CC5)c(C#N)c4)n3)cn2)C1 [Example Compound 146, N-{2-Cyano-4-[2-({6-[(3-methoxyazetidin-1-yl)methyl]pyridin-3-yl}amino)pyrimidin-4-yl]phenyl}cyclopropanecarboxamide]	
		1000 to 5000 nM					N#Cc1cc(-c2ccnc(Nc3ccnc(N4CC(O)C4)c3)n2)ccc1NC(=O)C1CC1 [Example Compound 237, N-[2-Cyano-4-(2-{[2-(3-hydroxyazetidin-1-yl)pyridin-4-yl]amino}pyrimidin-4-yl)phenyl]cyclopropanecarboxamide]	< 5 nM
				250 to 1000 nM			COCCNc1cc(Nc2nccc(-c3ccc(OC4CCN(C(=O)CO)CC4)c(C#N)c3)n2)ccn1 [Example Compound 238, 2-{[1-(Hydroxyacetyl)piperidin-4-yl]oxy}-5-[2-({2-[(2-methoxyethyl)amino]pyridin-4-yl}amino)pyrimidin-4-yl]benzonitrile]	< 5 nM
		1000 to 5000 nM					N#Cc1cc(-c2ccnc(Nc3ccnc(NCCO)c3)n2)ccc1OC1CCN(C(=O)CO)CC1 [Example Compound 239, 2-{[1-(Hydroxyacetyl)piperidin-4-yl]oxy}-5-[2-({2-[(2-hydroxyethyl)amino]pyridin-4-yl}amino)pyrimidin-4-yl]benzonitrile]	< 5 nM
		1000 to 5000 nM					N#Cc1cc(-c2ccnc(Nc3ccnc(N4CC(O)C4)c3)n2)ccc1OC1CCN(C(=O)CO)CC1 [Example Compound 240, 2-{[1-(Hydroxyacetyl)piperidin-4-yl]oxy}-5-(2-{[2-(3-hydroxyazetidin-1-yl)pyridin-4-yl]amino}pyrimidin-4-yl)benzonitrile]	< 5 nM
		< 100 nM					CC(c1ccc(Nc2nccc(-c3ccc(OC4CCOCC4)c(C#N)c3)n2)cn1)N1CC(N(C)C)C1 (stereo not shown) [Example Compound 244, 5-{2-[(6-{1-[3-(Dimethylamino)azetidin-1-yl]ethyl}pyridin-3-yl)amino]pyrimidin-4-yl}-2-(tetrahydro-2H-pyran-4-yloxy)benzonitrile]	< 5 nM
		< 100 nM					COC1CN(c2cc(Nc3nccc(-c4ccc(OC5CCN(C(=O)CO)CC5)c(C#N)c4)n3)ccn2)C1 [Example Compound 249, 2-{[1-(Hydroxyacetyl)piperidin-4-yl]oxy}-5-(2-{[2-(3-methoxyazetidin-1-yl)pyridin-4-yl]amino}pyrimidin-4-yl)benzonitrile]	< 5 nM
		100 to 250 nM					CC(c1ncc(Nc2nccc(-c3ccc(OC4CCOCC4)c(C#N)c3)n2)cc1F)N1CC(N(C)C)C1 (stereo not shown) [Example Compound 250, 5-{2-[(6-{1-[3-(Dimethylamino)azetidin-1-yl]ethyl}-5-fluoropyridin-3-yl)amino]pyrimidin-4-yl}-2-(tetrahydro-2H-pyran-4-yloxy)benzonitrile]	< 5 nM
		100 to 250 nM					CC(c1ncc(Nc2nccc(-c3ccc(OC4CCOCC4)c(C#N)c3)n2)cc1F)N1CCOCC1 (stereo not shown) [Example Compound 251]	< 5 nM
		< 100 nM					CC(c1ccc(Nc2nccc(-c3ccc(OC4CCOCC4)c(C#N)c3)n2)cn1)N1CCOCC1 (stereo not shown) [Example Compound 252, 5-[2-({6-[1-(Morpholin-4-yl)ethyl]pyridin-3-yl}amino)pyrimidin-4-yl]-2-(tetrahydro-2H-pyran-4-yloxy)benzonitrile]	< 5 nM
